Source: patent US20250228239A1, “MOLECULES HAVING PESTICIDAL UTILITY, AND INTERMEDIATES, COMPOSITIONS, AND PROCESSES, RELATED THERETO” (priority 2024, published 2025)
Read-outs that look alike come from different tables or passages of the source.

How the values were obtained:
Type in all cases: in vivo
[1] = tested on: Beet Armyworm (Spodoptera exigua, LAPHEG); assay: Bioassays on Beet Armyworm (BAW), 128-well diet tray assay; conditions: Spodoptera exigua
Summary of the method: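 Second-instar larvae, one to five per well, were placed on artificial diet surface-treated with 50 μg/cm^2 compound in 90:10 acetone-water, eight wells per treatment. Trays were held 5–7 days at 25 °C, 14:10 light-dark. Percent mortality per well was averaged over eight wells.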

[2] = tested on: Cabbage Looper (Trichoplusia ni, TRIPNI); assay: Bioassays on Cabbage Looper (CL), 128-well diet tray assay; conditions: Trichoplusia ni
Summary of the method: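 Percent mortality, averaged across eight replicate wells, after second-instar larvae (1–5 per well) fed for five to seven days on diet dosed at 50 μg/cm^2. Compound was applied in acetone-water 90:10 and dried; trays kept vented at 25° C under 14:10 photoperiod.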

[3] = tested on: Green Peach Aphid (Myzus persicae, MYZUPE); assay: Bioassays on Green Peach Aphid (GPA), foliar spray on cabbage seedlings; conditions: 72 h
Summary of the method: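 Percent control (Abbott-corrected versus solvent-sprayed plants) comes from live-aphid counts three days after treatment at about 25° C. Test solution at 200 ppm was sprayed to runoff onto both leaf surfaces of cabbage seedlings infested a day earlier with 20-50 aphids; four replicate pots.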

[4] = tested on: Yellow Fever Mosquito (Aedes aegypti, AEDSAE); conditions: for YFM rating: Table ABC / ABC-DP rating
Summary of the method: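 Compounds from DMSO master plates (4000 ppm stock) diluted in 90:10 water/acetone, then dispensed into six replicate plates and infested with ~1-day-old Aedes aegypti larvae in liver-powder water. Held covered at room temperature for 3 days; each well scored for larval mortality and graded on a rating scale.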

[5] = Beet Armyworm, Table ABC / ABC-DP rating, read-out: BAW rating
[6] = Cabbage Looper, Table ABC / ABC-DP rating, read-out: CL rating
[7] = Green Peach Aphid, Table ABC / ABC-DP rating, read-out: GPA rating
[8] = Table ABC: Biological Results, species BAW, read-out: BAW
[9] = Table ABC: Biological Results, species CL, read-out: CL
[10] = Table ABC: Biological Results, species GPA, read-out: GPA
[11] = Table ABC: Biological Results, species YFM
[12] = Beet Armyworm, rating class, read-out: BAW
[13] = Cabbage Looper, rating class, read-out: CL
[14] = Green Peach Aphid, rating class, read-out: GPA
[15] = Yellow Fever Mosquito, rating class

SMILES: Cc1cc(NC(=O)[C@H]2[C@H](c3ccc(F)c(Cl)c3)C2(Cl)Cl)cc(C(=O)NCC(F)(F)C(F)(F)F)c1Cl (relative stereo) [F2039, trans-2-Chloro-5-(2,2-dichloro-3-(3-chloro-4-fluorophenyl)cyclopropane-1-carboxamido)-3-methyl-N-(2,2,3,3,3-pentafluoropropyl)benzamide]
- pest or weed control at 50 µg/cm2 [1, 5]: 50 to 100%
- pest or weed control at 50 µg/cm2 [2, 6]: 50 to 100%
- pest or weed control at 200 µg/mL [3, 7]: 80 to 100%
- YFM rating ([4]; Yellow Fever Mosquito): A (80–100)

SMILES: O=C(Nc1ccc(F)cc1F)c1c(Cl)ccc(NC(=O)[C@H]2[C@H](c3ccc(F)c(Cl)c3)C2(Cl)Cl)c1Cl (relative stereo) [F1105, trans-2,6-dichloro-3-(2,2-dichloro-3-(3-chloro-4-fluorophenyl)cyclopropane-1-carboxamido)-N-(2,4-difluorophenyl)benzamide]
- pest or weed control at 50 µg/cm2 [1, 8]: 50 to 100%
- pest or weed control at 50 µg/cm2 [2, 9]: 50 to 100%
- pest or weed control at 200 µg/mL [3, 10]: 0 to 80%
- YFM [4, 11]: A (80–100)

SMILES: O=C(Nc1c(F)ccc(NC(=O)C(F)F)c1F)c1cc(NC(=O)[C@H]2[C@H](c3ccc(F)c(Cl)c3)C2(Cl)Cl)ccc1Cl [F1234, 2-Chloro-5-((1R,3R)-2,2-dichloro-3-(3-chloro-4-fluorophenyl)cyclopropane-1-carboxamido)-N-(3-(2,2-difluoroacetamido)-2,6-difluorophenyl)benzamide]
- pest or weed control at 50 µg/cm2 [1, 8]: 50 to 100%
- pest or weed control at 50 µg/cm2 [2, 9]: 50 to 100%
- pest or weed control at 200 µg/mL [3, 10]: 80 to 100%
- YFM [4, 11]: A (80–100)

SMILES: Nc1ccc(F)c(NC(=O)c2cc(NC(=O)[C@H]3[C@H](c4ccc(F)c(Cl)c4)C3(Cl)Cl)ccc2Cl)c1F [F1247, N-(3-Amino-2,6-difluorophenyl)-2-chloro-5-((1R,3R)-2,2-dichloro-3-(3-chloro-4-fluorophenyl)cyclopropane-1-carboxamido)benzamide]
- pest or weed control at 50 µg/cm2 [1, 8]: 50 to 100%
- pest or weed control at 50 µg/cm2 [2, 9]: 50 to 100%
- pest or weed control at 200 µg/mL [3, 10]: 80 to 100%
- YFM [4, 11]: A (80–100)

SMILES: O=C(CC1CC1)Nc1c(F)ccc(NC(=O)c2cc(NC(=O)[C@H]3[C@H](c4ccc(F)c(Cl)c4)C3(Cl)Cl)ccc2Cl)c1F [F1702, 2-Chloro-N-(3-(2-cyclopropylacetamido)-2,4-difluorophenyl)-5-((1R,3R)-2,2-dichloro-3-(3-chloro-4-fluorophenyl)cyclopropane-1-carboxamido)benzamide]
- pest or weed control at 50 µg/cm2 [1, 12]: 50 to 100%
- pest or weed control at 50 µg/cm2 [2, 13]: 50 to 100%
- pest or weed control at 200 µg/mL [3, 14]: 80 to 100%
- YFM [4, 15]: A (80–100)

SMILES: O=C(Nc1ccc(F)c(NC(=O)C2CC(F)(F)C2)c1F)c1cc(NC(=O)[C@H]2[C@H](c3ccc(F)c(C(F)(F)F)c3)C2(Cl)Cl)ccc1Cl [F1644, 2-Chloro-5-((1R,3R)-2,2-dichloro-3-(4-fluoro-3-(trifluoromethyl)phenyl)cyclopropane-1-carboxamido)-N-(3-(3,3-difluorocyclobutane-1-carboxamido)-2,4-difluorophenyl)benzamide]
- pest or weed control at 50 µg/cm2 [1, 12]: 50 to 100%
- pest or weed control at 50 µg/cm2 [2, 13]: 50 to 100%
- pest or weed control at 200 µg/mL [3, 14]: 0 to 80%
- YFM [4, 15]: B (More than 0 – Less than 80)

SMILES: COCCC(=O)Nc1c(F)ccc(NC(=O)c2cc(NC(=O)[C@H]3[C@H](c4ccc(F)c(C(F)(F)F)c4)C3(Cl)Cl)ccc2Cl)c1F [F1489, 2-Chloro-5-((1R,3R)-2,2-dichloro-3-(4-fluoro-3-(trifluoromethyl)phenyl)cyclopropane-1-carboxamido)-N-(2,4-difluoro-3-(3-methoxypropanamido)phenyl)benzamide]
- pest or weed control at 50 µg/cm2 [1, 12]: 50 to 100%
- pest or weed control at 50 µg/cm2 [2, 13]: 50 to 100%
- pest or weed control at 200 µg/mL [3, 14]: 0 to 80%
- YFM [4, 15]: A (80–100)

SMILES: CN(C(=O)C(F)F)c1c(F)ccc(NC(=O)c2cc(NC(=O)[C@H]3[C@H](c4ccc(F)c(C(F)(F)F)c4)C3(Cl)Cl)ccc2Cl)c1F [F1386, 2-Chloro-5-((1R,3R)-2,2-dichloro-3-(4-fluoro-3-(trifluoromethyl)phenyl)cyclopropane-1-carboxamido)-N-(3-(2,2-difluoro-N-methylacetamido)-2,4-difluorophenyl)benzamide]
- pest or weed control at 50 µg/cm2 [1, 8]: 50 to 100%
- pest or weed control at 50 µg/cm2 [2, 9]: 50 to 100%
- pest or weed control at 200 µg/mL [3, 10]: 0 to 80%
- YFM [4, 11]: A (80–100)

SMILES: Nc1ccc(F)c(NC(=O)c2cc(NC(=O)[C@H]3[C@H](c4cc(Cl)c(Cl)c(Cl)c4)C3(Cl)Cl)ccc2Cl)c1F [F1228, N-(3-Amino-2,6-difluorophenyl)-2-chloro-5-((1R,3R)-2,2-dichloro-3-(3,4,5-trichlorophenyl)cyclopropane-1-carboxamido)benzamide]
- pest or weed control at 50 µg/cm2 [1, 8]: 50 to 100%
- pest or weed control at 50 µg/cm2 [2, 9]: 50 to 100%
- pest or weed control at 200 µg/mL [3, 10]: 0 to 80%
- YFM [4, 11]: A (80–100)

SMILES: Nc1c(F)ccc(NC(=O)c2cc(NC(=O)[C@H]3[C@H](c4cccc(C(F)(F)F)c4)C3(Cl)Cl)ccc2Cl)c1F [F1666, N-(3-Amino-2,4-difluorophenyl)-2-chloro-5-((1R,3R)-2,2-dichloro-3-(3-(trifluoromethyl)phenyl)cyclopropane-1-carboxamido)benzamide]
- pest or weed control at 50 µg/cm2 [1, 12]: 50 to 100%
- pest or weed control at 50 µg/cm2 [2, 13]: 50 to 100%
- pest or weed control at 200 µg/mL [3, 14]: 80 to 100%
- YFM [4, 15]: B (More than 0 – Less than 80)

SMILES: CN(C(=O)CC#N)c1c(F)ccc(NC(=O)c2cc(NC(=O)[C@H]3[C@H](c4ccc(Cl)c(Cl)c4)C3(Cl)Cl)ccc2Cl)c1F [F1617, 2-Chloro-N-(3-(2-cyano-N-methylacetamido)-2,4-difluorophenyl)-5-((1R,3R)-2,2-dichloro-3-(3,4-dichlorophenyl)cyclopropane-1-carboxamido)benzamide]
- pest or weed control at 50 µg/cm2 [1, 12]: 50 to 100%
- pest or weed control at 50 µg/cm2 [2, 13]: 50 to 100%
- pest or weed control at 200 µg/mL [3, 14]: 0 to 80%
- YFM [4, 15]: A (80–100)

SMILES: CCCC(=O)Nc1c(F)ccc(NC(=O)c2cc(NC(=O)[C@H]3[C@H](c4cc(Cl)c(Cl)c(Cl)c4)C3(Cl)Cl)ccc2Cl)c1F [F1655, N-(3-Butyramido-2,4-difluorophenyl)-2-chloro-5-((1R,3R)-2,2-dichloro-3-(3,4,5-trichlorophenyl)cyclopropane-1-carboxamido)benzamide]
- pest or weed control at 50 µg/cm2 [1, 12]: 50 to 100%
- pest or weed control at 50 µg/cm2 [2, 13]: 50 to 100%
- pest or weed control at 200 µg/mL [3, 14]: 0 to 80%
- YFM [4, 15]: B (More than 0 – Less than 80)

SMILES: O=C(NCC(F)(F)F)c1cc(NC(=O)[C@H]2[C@H](c3ccc(F)c(Cl)c3F)C2(Cl)Cl)ccc1Cl (relative stereo) [F2011, trans-2-Chloro-5-(2,2-dichloro-3-(3-chloro-2,4-difluorophenyl)cyclopropane-1-carboxamido)-N-(2,2,2-trifluoroethyl)benzamide]
- pest or weed control at 50 µg/cm2 [1, 5]: 50 to 100%
- pest or weed control at 50 µg/cm2 [2, 6]: 50 to 100%
- pest or weed control at 200 µg/mL [3, 7]: 0 to 80%
- YFM rating ([4]; Yellow Fever Mosquito): A (80–100)

SMILES: CC(=O)Nc1c(F)cc(F)c(NC(=O)c2cc(NC(=O)[C@H]3[C@H](c4ccc(F)c(C(F)(F)F)c4)C3(Cl)Cl)ccc2Cl)c1F [F1613, N-(3-Acetamido-2,4,6-trifluorophenyl)-2-chloro-5-((1R,3R)-2,2-dichloro-3-(4-fluoro-3-(trifluoromethyl)phenyl)cyclopropane-1-carboxamido)benzamide]
- pest or weed control at 50 µg/cm2 [1, 12]: 50 to 100%
- pest or weed control at 50 µg/cm2 [2, 13]: 50 to 100%
- pest or weed control at 200 µg/mL [3, 14]: 80 to 100%
- YFM [4, 15]: A (80–100)

SMILES: Nc1ccc(F)c(NC(=O)c2cc(NC(=O)[C@H]3[C@H](c4cc(Cl)cc(Cl)c4)C3(Cl)Cl)ccc2Cl)c1F [F1227, N-(3-Amino-2,6-difluorophenyl)-2-chloro-5-((1R,3R)-2,2-dichloro-3-(3,5-dichlorophenyl)cyclopropane-1-carboxamido)benzamide]
- pest or weed control at 50 µg/cm2 [1, 8]: 50 to 100%
- pest or weed control at 50 µg/cm2 [2, 9]: 50 to 100%
- pest or weed control at 200 µg/mL [3, 10]: 0 to 80%
- YFM [4, 11]: A (80–100)

SMILES: CCN(C(=O)c1cc(NC(=O)[C@H]2[C@H](c3cc(Cl)cc(Cl)c3)C2(Cl)Cl)ccc1Cl)c1ccc(F)cc1C#N (relative stereo) [F1091, trans-2-Chloro-N-(2-cyano-4-fluorophenyl)-5-(2,2-dichloro-3-(3,5-dichlorophenyl)cyclopropane-1-carboxamido)-N-ethylbenzamide]
- pest or weed control at 50 µg/cm2 [1, 8]: 50 to 100%
- pest or weed control at 50 µg/cm2 [2, 9]: 50 to 100%
- pest or weed control at 200 µg/mL [3, 10]: 0 to 80%
- YFM [4, 11]: A (80–100)

SMILES: O=C(Nc1ccc(F)c(NC(=O)C(F)(F)F)c1F)c1cc(NC(=O)[C@H]2[C@H](c3ccc(Cl)c(C(F)(F)F)c3)C2(Cl)Cl)ccc1Cl [F1656, 2-Chloro-5-((1R,3R)-2,2-dichloro-3-(4-chloro-3-(trifluoromethyl)phenyl)cyclopropane-1-carboxamido)-N-(2,4-difluoro-3-(2,2,2-trifluoroacetamido)phenyl)benzamide]
- pest or weed control at 50 µg/cm2 [1, 12]: 50 to 100%
- pest or weed control at 50 µg/cm2 [2, 13]: 50 to 100%
- pest or weed control at 200 µg/mL [3, 14]: 0 to 80%
- YFM [4, 15]: A (80–100)
